From patent US9732060B2, “Aminotriazine derivative and pharmaceutical composition comprising the same” (Shionogi & Co., Ltd., priority 2013, dated 2017)

How the values were obtained:
[1] = target: human ether-a-go-go related gene (hERG) channel (Homo sapiens (Human), UniProt Q12809); experiment: hERG test (whole cell patch clamp, IKr); type: cell-based; settings: CHO cells expressing hERG channel, IKr tail peak current
Source text: For the purpose of assessing risk of an electrocardiogram QT interval prolongation of the compound of the present invention, effects of the compound of the present invention on delayed rectifier K+ current (IKr), which plays an important role in the ventricular repolarization process, was studied using CHO cells expressing human ether-a-go-go related gene (hERG) channel.
After a cell was retained at a membrane potential of −80 mV by whole cell patch clamp method using an automated patch clamp system (QPatch: Sophion Bioscience A/S) and gave a leak potential of −50 mV, IKr induced by depolarization pulse stimulation at +20 mV for 2 seconds and, further, repolarization pulse stimulation at −50 mV for 2 seconds, was recorded. […] From the recording IKr, an absolute value of the tail peak current was measured based on the current value at the resting membrane potential using analysis software (Falster Patch; Sophion Bioscience A/S). Further, the % inhibition relative to the tail peak current before application of the compound of the present invention was calculated, and compared with the vehicle-applied group (0.1% dimethyl sulfoxide solution) to assess influence of the compound of the present invention on IKr.

[2] = Metabolism stability test, pooled human hepatic microsomes; type: in vitro ADME; settings: remaining rate, human liver microsomes, 30 minutes, compound concentration 0.5 μmol/L
Description: Using commercially available pooled human hepatic microsomes, a test compound is reacted for a constant time, a remaining rate is calculated by comparing a reacted sample and an unreacted sample, thereby, a degree of metabolism in liver is assessed.
A reaction was performed (oxidative reaction) at 37° C. for 0 minute or 30 minutes in the presence of 1 mmol/L NADPH in 0.2 mL of a buffer (50 mmol/L tris-HCl pH 7.4, 150 mmol/L potassium chloride, 10 mmol/L magnesium chloride) containing 0.5 mg protein/mL of human liver microsomes. After the reaction, 50 μL of the reaction solution was added to 100 μL of a methanol/acetonitrile=1/1 (v/v) mixed and centrifuged at 3000 rpm for 15 minutes. The test compound in the supernatant was quantified by LC/MS/MS, and a remaining amount of the test compound after the reaction was calculated, letting a compound amount at 0 minute reaction time to be 100%.
The remaining rate at the compound concentration 0.5 μmol/L are shown below.

[3] = Solubility test (1% DMSO, artificial intestinal juice pH 6.8); type: physicochemical; settings: artificial intestinal juice pH 6.8 with 1% DMSO, 25 °C, fassgf or other biorelevant, kinetic from dmso stock, artificial intestinal juice pH 6.8, 25 degrees Celsius, read-out: Solubulity

human ether-a-go-go related gene (hERG) channel, sequence (Q12809 whole entry): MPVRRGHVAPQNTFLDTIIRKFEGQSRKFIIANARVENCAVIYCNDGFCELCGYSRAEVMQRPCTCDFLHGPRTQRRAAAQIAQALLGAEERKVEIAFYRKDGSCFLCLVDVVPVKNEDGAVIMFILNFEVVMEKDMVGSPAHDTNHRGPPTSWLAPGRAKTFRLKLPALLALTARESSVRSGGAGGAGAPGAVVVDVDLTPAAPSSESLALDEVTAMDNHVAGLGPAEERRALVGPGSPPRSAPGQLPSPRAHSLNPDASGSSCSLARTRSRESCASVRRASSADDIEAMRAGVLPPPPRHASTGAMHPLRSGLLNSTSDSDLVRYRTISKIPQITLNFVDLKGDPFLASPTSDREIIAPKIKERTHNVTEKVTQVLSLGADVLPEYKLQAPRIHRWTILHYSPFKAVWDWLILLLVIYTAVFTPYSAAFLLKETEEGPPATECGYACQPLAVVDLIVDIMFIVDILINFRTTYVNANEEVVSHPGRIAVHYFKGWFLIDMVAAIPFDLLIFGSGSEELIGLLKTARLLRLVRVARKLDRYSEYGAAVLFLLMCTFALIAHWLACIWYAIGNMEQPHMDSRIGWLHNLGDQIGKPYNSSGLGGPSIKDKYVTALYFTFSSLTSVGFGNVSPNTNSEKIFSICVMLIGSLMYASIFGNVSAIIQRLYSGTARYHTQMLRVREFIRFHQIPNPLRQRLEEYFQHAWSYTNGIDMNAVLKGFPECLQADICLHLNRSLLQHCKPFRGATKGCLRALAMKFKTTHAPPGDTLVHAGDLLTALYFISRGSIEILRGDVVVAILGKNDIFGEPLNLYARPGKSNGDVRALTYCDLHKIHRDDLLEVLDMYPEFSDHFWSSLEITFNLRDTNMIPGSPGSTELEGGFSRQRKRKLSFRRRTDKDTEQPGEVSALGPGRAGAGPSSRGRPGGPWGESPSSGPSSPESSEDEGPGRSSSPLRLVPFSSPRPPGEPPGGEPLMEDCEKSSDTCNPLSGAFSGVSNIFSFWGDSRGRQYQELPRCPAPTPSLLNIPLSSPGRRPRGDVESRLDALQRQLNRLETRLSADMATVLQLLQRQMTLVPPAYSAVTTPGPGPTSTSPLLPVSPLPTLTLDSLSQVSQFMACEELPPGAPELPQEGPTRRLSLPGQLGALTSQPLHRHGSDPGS

| Compound | hERG Inhibition [1] | Metabolism Stability [2] | solubility at 18 h [3] |
| --- | --- | --- | --- |
| CC(C)(Cn1c(=O)[nH]/c(=N\c2ccc(Oc3ccc(Cl)cn3)cc2)n(Cc2ccc(Cl)cc2)c1=O)C(=O)O [Compound I-006] | 5.3% | – | – |
| C[C@@H](C(=O)O)[C@H](C)n1c(=O)[nH]/c(=N\c2ccc(Oc3ccc(F)cn3)c(F)c2)n(Cc2ccc(Cl)cc2)c1=O [Compound I-002] | 7.3% | 99% | > 50 µM |
